Assay results as given in patent publication EP4647428A1, “COMPOUND CONTAINING 2-METHYL-2-(3-(PIPERIDIN-3-YL)PHENOXY)-2-METHYLPROPANAMIDE SKELETON” (Jiangsu Mingsheng Jutai Biotechnology Co. Ltd, priority 2023, dated 2024).

What was measured:
β-catenin = biological target: T1, β-catenin (Homo sapiens, UniProt P35222); experiment: SRP test (Biacore T200, affinity fitting KD to coupled ligand β-catenin); format: binding; settings: Biacore T200, CM5 chip, 25°C, HEPES pH 7.4
T1 sequence (P35222 1-781): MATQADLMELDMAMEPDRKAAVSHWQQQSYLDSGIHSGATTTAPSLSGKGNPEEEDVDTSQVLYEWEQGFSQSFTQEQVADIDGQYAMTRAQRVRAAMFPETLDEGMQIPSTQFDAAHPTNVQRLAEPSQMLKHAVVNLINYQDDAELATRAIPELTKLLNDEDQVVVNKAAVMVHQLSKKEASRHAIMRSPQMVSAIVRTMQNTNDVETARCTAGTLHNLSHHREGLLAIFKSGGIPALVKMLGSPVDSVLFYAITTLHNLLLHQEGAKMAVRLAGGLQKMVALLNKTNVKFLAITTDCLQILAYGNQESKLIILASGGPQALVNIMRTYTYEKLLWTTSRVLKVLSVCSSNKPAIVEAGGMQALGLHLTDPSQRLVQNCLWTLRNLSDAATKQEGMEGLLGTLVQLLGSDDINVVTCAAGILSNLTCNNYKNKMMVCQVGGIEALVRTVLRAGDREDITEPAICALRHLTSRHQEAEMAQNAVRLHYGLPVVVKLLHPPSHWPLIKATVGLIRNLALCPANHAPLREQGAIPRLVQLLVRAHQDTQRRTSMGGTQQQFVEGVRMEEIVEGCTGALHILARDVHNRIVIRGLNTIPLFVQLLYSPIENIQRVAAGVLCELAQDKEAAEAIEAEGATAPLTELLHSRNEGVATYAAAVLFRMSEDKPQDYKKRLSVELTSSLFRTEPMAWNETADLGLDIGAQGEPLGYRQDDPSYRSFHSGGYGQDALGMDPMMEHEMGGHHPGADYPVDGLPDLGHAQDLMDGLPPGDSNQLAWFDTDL
Experimental: • 1. The analyte is in powder form. • 2. The temperature is 25°C. • 3. The analytical equipment used was Biacore T200 instrument.
• 1. Ligand β-catenin was diluted with HEPES (pH 7.4) to 0.5 mg/mL • 2. The analyte was dissolved in DMSO and diluted with 0.1% DMSO HEPES (pH 7.4)
3. Experimental Procedure
• 1. Start the Biacore T200 instrument according to standard operating procedures. • 2. Prepare 500 ml of HEPES buffer (pH 7.4) and deionized water (filtered through a 0.22 µm membrane) for rinsing the injection needle. • 3. Start installing the chip and install the CM5 chip according to the standard process. • 4. Prepare to start the formal experiment. The buffer solution will flush the flow system inside the entire system at a high flow rate. • 5. Choose the appropriate procedure based on the sample size. • 6. Start the capture chip. Prepare a sufficient volume of ligand β-catenin, EDC/NHS, and blocking buffer. Initiate the coupling procedure with a 7-minute coupling time and a flow rate of 10 µl/min. The final ligand coupling volume is approximately 16,000 RU. • 7. After the coupling is completed, start the sample detection and set the analyte binding time to 120 s. • The flow rate was 30 µL/min; the dissociation time was 200 s, the flow rate was 30 µL/min; the regeneration time was 30 s, • The flow rate was 30 µL/min. • 8. […]

SW480 = experiment: CCK8 cell inhibition test on SW480 cells; format: cell-based; settings: Homo sapiens; CCK-8, SW480 cells, 24 hours incubation at 37°C, compound 20 µM to 0.15625 µM in DMEM (2% FBS)
Experimental: Cells were digested, counted, and plated in a 96-well plate (flat-bottomed, transparent) with 10,000 cells/100 µl DMEM (10% FBS) per well . • 2. Observe the cell status on the next day and start adding drugs after the cells have fully adhered to the wall; • 3. Dilute the compound in DMEM (2% FBS) in a serial dilution format to concentrations of 20 µM, 10 µM, 5 µM, 2.5 µM, 1.25 µM, 0.625 µM, 0.3125 µM, 0.15625 µM, and 0 µM (with equal volume of DMSO). • 4. Add 100 µl of the above compounds at different concentrations to each well. Repeat for each concentration gradient in duplicate. Leave three blank wells (add only DMEM 2% FBS culture medium without cells) . • 5. Incubate at 37°C for 24 hours . • 6. Add 10 µl of CCK-8 Enhanced Solution to each well. Since the amount of CCK-8 added to each well is relatively small, there may be errors due to the reagent sticking to the well wall. It is recommended to gently tap the culture plate after adding the reagent to help mix it. • 7. Incubate in the incubator for 0.5-4 hours: The amount of formazan formed varies depending on the cell type. In most cases, incubation for 1 hour is sufficient. If color development is insufficient, continue incubation to confirm optimal conditions. • 8. Measure the absorbance at 450nm and 600nm (excluding interference from the reagent background color and the absorbance of the well plate itself); • 9. The final absorbance value is OD450nm-OD600nm, and the inhibition rate is calculated; Inhibition rate = [(Ac−As)/(Ac−Ab)] × 100% [formula] • As: absorbance of the experimental well (culture medium containing cells, CCK-8, and drug to be tested); • Ac: absorbance of control wells (culture medium containing cells, CCK-8, and no test drug); • Ab: absorbance of blank wells (culture medium without cells, test drugs, or CCK-8).

Row | Kd (β-catenin) [nM] | IC50 (SW480) [nM] | Structure (SMILES)
1 | 284 | 3560 | CC(C)c1ccc(-c2cccc(S(=O)(=O)N3CCCC(c4cccc(OC(C)(C)C(=O)NCC(=O)N5CCC[C@H]5CN)c4)C3)c2)cc1 (stereo partly shown) [Compound 115-010]
2 | 760 | < 2970 | CC(C)c1ccc(-c2cccc(S(=O)(=O)N3CCCC(c4cccc(OC(C)(C)C(=O)NCC(=O)N5CC[C@@H](CN)C5)c4)C3)c2)cc1 (stereo partly shown) [Compound 115-012]
